Source: ChEMBL document CHEMBL4387733, “Design, synthesis and biological evaluation of indane derived GPR40 agoPAMs” (Bioorg Med Chem Lett, 2019)
In brackets after ≈: the same amount, converted by molar mass. Activity calls are given as the source filed them. The calls are words filed in the database; no cut-off is given here.

How the values were obtained:
[1] = Drug level in human hepatocytes treated with (2S,3R)-3-cyclopropyl-3-(3-((R)-5-(2-fluoro-5-methoxyphenyl)-2,3-dihydro-1H-inden-1-yloxy)phenyl)-2-methylpropanoic acid at 5 uM measured after 2 hrs; type: ADME, cell-based, Hepatocyte
[2] = Stability of the compound in pH 7.4 potassium phosphate buffer at 10 uM measured after 5 hrs; type: physicochemical; conditions: pH 7.4, 5 h
[3] = molecular target: Beta-3 adrenergic receptor (Homo sapiens) (UniProt P13945); test: Inhibition of human beta3 adrenergic receptor at 10 uM relative to control
Sequence of Beta-3 adrenergic receptor (Homo sapiens) (P13945 whole entry, looked up): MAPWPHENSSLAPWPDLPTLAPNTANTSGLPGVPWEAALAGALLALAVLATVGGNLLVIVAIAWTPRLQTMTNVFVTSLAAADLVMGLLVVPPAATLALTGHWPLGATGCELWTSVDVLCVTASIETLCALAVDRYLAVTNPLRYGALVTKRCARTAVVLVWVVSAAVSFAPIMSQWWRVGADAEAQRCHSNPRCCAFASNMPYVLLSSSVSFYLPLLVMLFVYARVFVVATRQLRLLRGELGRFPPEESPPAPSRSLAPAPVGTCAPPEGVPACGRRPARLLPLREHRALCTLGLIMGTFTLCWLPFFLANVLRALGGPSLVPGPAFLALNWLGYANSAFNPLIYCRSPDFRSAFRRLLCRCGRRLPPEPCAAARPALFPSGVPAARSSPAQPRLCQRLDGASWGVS

[4] = molecular target: T1, Free fatty acid receptor 1 (Homo sapiens, UniProt O14842); test: Positive allosteric modulation of recombinant human GPR40 expressed in HEK293 cells assessed as increase in [3H]-myo-inositol phosphate accumulation measured after 60 mins in presence of 100% human serum by microbeta counting method relative to control; type: functional, cell-based
T1 sequence (O14842 whole entry): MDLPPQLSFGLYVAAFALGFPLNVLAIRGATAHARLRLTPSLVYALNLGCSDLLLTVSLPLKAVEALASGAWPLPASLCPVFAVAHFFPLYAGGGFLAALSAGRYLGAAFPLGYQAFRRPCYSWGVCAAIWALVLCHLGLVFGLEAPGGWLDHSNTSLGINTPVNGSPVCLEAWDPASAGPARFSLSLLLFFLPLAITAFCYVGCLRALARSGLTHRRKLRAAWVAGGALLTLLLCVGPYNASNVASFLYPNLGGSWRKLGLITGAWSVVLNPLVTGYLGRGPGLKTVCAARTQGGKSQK

[5] = molecular target: T1, Free fatty acid receptor 1; test: Positive allosteric modulation of recombinant human GPR40 expressed in HEK293 cells assessed as increase in [3H]-myo-inositol phosphate accumulation measured after 60 mins in absence of human serum by microbeta counting method relative to control; type: functional, cell-based; set-up: concentration or dose not given beside the values
[6] = molecular target: T1, Free fatty acid receptor 1; test: Positive allosteric modulation of recombinant human GPR40 expressed in HEK293 cells assessed as increase in [3H]-myo-inositol phosphate accumulation measured after 60 mins in presence of 100% human serum by microbeta counting method; type: functional, cell-based
[7] = Protein binding in human plasma assessed as unbound fraction level; type: ADME, cell-free
[8] = molecular target: Acetylcholinesterase (Homo sapiens) (UniProt P22303); test: Inhibition of human recombinant full length acetylcholine esterase expressed in HEK293 cells at 10 uM using acetylcholine as substrate preincubated for 15 mins followed by substrate addition measured after 20 mins by spectrophotometric analysis
Sequence of Acetylcholinesterase (Homo sapiens) (P22303 whole entry): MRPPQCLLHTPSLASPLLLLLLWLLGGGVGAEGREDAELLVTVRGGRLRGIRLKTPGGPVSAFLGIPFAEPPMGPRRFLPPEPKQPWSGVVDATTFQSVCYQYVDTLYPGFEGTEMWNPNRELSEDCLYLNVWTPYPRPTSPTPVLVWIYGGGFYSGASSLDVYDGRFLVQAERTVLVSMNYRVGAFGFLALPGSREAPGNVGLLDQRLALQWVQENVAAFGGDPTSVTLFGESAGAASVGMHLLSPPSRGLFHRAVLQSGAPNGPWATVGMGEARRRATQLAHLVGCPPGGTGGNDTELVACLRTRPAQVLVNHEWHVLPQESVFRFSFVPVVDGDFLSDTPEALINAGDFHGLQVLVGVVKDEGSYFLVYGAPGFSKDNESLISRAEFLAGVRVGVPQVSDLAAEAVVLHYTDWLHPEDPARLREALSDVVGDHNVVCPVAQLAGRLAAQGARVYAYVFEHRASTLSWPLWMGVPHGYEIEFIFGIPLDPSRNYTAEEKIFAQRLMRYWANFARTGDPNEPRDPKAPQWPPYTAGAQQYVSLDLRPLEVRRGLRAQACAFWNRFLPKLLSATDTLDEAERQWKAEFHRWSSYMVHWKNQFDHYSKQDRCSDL

[9] = molecular target: Cysteinyl leukotriene receptor 2 (Homo sapiens) (UniProt Q9NS75); test: Displacement of [3H]LTD4 from human full-length recombinant cysteinyl leukotriene type-2 receptor expressed in HEK293 cells at 10 uM measured after 60 mins by scintillation counting method relative to control; type: cell-based
Sequence of Cysteinyl leukotriene receptor 2 (Homo sapiens) (Q9NS75 whole entry): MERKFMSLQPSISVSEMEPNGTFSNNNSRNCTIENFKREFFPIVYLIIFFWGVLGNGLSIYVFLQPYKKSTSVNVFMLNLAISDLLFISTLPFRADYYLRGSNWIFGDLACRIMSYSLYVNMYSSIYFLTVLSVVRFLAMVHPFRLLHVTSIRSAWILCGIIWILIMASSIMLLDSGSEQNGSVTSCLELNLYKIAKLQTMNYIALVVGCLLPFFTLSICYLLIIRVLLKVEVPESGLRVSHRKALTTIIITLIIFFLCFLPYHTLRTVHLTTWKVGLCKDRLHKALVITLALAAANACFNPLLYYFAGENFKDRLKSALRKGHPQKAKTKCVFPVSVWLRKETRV

[10] = molecular target: Peroxisome proliferator-activated receptor gamma (Homo sapiens) (UniProt P37231); test: Inhibition of human PPARG at 10 uM relative to control
Sequence of Peroxisome proliferator-activated receptor gamma (Homo sapiens) (P37231 whole entry): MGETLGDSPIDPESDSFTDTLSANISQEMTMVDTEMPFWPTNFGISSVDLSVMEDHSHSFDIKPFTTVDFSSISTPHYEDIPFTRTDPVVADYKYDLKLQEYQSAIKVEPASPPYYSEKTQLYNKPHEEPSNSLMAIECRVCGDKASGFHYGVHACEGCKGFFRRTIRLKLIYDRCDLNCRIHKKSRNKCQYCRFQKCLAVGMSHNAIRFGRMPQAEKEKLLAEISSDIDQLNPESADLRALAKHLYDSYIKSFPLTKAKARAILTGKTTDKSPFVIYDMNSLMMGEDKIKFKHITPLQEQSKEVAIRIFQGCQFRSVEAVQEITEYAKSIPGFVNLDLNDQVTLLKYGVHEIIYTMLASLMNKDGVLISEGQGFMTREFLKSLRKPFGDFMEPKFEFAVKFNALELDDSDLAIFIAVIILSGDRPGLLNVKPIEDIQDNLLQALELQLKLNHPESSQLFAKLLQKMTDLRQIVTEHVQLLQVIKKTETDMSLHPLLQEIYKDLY

[11] = molecular target: Prostacyclin receptor (Homo sapiens) (UniProt P43119); test: Inhibition of human prostanoid IP receptor at 10 uM relative to control
Sequence of Prostacyclin receptor (Homo sapiens) (P43119 whole entry): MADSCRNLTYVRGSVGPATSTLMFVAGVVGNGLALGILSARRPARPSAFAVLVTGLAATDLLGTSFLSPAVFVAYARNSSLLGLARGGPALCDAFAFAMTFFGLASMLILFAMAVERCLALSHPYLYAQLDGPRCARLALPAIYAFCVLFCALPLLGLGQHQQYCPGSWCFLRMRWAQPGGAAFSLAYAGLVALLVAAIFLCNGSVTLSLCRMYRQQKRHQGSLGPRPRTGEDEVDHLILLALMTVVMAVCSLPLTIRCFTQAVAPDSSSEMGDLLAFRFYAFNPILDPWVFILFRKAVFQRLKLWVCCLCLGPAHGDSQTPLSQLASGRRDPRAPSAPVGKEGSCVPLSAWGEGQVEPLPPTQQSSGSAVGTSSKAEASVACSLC

[12] = molecular target: Sodium-dependent dopamine transporter (Homo sapiens) (UniProt Q01959); test: Inhibition of human sodium dependent dopamine transporter at 10 uM relative to control
Sequence of Sodium-dependent dopamine transporter (Homo sapiens) (Q01959 whole entry): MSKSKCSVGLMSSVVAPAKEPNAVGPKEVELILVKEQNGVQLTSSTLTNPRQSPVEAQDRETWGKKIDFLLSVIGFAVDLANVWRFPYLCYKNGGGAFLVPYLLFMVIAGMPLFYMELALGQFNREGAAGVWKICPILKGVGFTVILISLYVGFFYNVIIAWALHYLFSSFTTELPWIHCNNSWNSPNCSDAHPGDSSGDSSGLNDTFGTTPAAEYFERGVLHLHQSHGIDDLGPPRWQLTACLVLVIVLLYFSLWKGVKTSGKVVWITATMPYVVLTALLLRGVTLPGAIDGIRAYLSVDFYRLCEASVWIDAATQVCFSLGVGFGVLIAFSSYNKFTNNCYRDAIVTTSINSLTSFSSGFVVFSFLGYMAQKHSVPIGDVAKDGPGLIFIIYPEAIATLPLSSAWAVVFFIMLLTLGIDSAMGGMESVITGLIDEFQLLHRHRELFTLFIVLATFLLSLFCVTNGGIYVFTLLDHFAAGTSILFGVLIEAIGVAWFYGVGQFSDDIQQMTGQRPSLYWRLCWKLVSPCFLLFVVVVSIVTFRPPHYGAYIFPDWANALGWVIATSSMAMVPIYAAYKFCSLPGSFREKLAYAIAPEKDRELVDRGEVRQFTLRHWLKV

[13] = molecular target: Sodium-dependent noradrenaline transporter (Homo sapiens) (UniProt P23975); test: Inhibition of human sodium dependent noradrenaline transporter at 10 uM relative to control
Sequence of Sodium-dependent noradrenaline transporter (Homo sapiens) (P23975 whole entry): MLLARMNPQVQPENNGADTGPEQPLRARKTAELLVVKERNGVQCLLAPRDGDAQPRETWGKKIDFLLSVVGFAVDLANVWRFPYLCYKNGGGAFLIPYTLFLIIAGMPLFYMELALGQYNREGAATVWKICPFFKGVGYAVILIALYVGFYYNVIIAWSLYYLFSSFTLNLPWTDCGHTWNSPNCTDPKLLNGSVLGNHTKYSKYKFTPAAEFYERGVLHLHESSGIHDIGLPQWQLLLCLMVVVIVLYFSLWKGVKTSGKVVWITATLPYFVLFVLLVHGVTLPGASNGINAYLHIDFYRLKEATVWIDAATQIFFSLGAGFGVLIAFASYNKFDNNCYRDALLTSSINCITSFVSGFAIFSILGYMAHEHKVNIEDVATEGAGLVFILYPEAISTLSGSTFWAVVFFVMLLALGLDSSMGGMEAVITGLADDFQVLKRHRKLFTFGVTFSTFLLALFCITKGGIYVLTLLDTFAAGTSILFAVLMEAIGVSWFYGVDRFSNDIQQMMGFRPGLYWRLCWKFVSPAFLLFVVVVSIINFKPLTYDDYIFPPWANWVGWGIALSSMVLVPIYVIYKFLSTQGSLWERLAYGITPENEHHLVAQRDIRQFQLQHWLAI

[14] = molecular target: Histamine H1 receptor (Homo sapiens) (UniProt P35367); test: Inhibition of human histamine H1 receptor at 10 uM relative to control
[15] = molecular target: Prostaglandin E2 receptor EP1 subtype (Homo sapiens) (UniProt P34995); test: Inhibition of human prostanoid EP1 receptor at 10 uM relative to control
Sequence of Prostaglandin E2 receptor EP1 subtype (Homo sapiens) (P34995 whole entry): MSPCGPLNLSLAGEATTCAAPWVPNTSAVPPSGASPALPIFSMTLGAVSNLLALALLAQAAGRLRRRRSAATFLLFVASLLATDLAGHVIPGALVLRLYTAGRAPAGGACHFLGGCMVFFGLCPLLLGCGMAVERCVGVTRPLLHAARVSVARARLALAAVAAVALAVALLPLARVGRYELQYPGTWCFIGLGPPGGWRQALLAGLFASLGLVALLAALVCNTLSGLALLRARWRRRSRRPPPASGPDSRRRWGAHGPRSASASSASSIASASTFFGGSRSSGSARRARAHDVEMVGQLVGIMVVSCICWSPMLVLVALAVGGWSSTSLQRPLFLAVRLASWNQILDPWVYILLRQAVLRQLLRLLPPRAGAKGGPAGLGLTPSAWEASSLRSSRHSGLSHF

[16] = molecular target: Prostaglandin E2 receptor EP3 subtype (Homo sapiens) (UniProt P43115); test: Inhibition of human prostanoid EP3 receptor at 10 uM relative to control
Sequence of Prostaglandin E2 receptor EP3 subtype (Homo sapiens) (P43115 whole entry): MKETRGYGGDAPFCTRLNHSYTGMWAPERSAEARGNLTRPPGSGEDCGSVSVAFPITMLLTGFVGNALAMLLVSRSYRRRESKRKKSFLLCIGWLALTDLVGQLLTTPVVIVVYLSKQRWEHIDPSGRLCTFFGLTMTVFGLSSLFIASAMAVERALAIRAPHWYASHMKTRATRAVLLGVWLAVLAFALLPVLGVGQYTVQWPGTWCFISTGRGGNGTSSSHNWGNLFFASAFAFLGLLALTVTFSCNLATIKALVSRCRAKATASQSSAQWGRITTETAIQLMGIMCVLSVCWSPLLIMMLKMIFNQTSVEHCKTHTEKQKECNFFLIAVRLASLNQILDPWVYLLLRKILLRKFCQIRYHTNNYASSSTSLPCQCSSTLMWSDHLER

[17] = Unbound drug level in Wistar Han rat plasma at 1 mg/kg, iv or 2 mg/kg, po measured at 3 hrs; type: ADME, organism-based; conditions: in vivo
[18] = Total drug level in Wistar Han rat plasma at 1 mg/kg, iv or 2 mg/kg, po measured at 3 hrs; type: ADME, organism-based
[19] = Cmax in Wistar Han rat at 1 mg/kg, iv or 2 mg/kg, po; type: ADME, organism-based; conditions: in vivo
[20] = Oral bioavailability in Wistar Han rat at 2 mg/kg; type: ADME, organism-based; conditions: in vivo
[21] = Half-life in Wistar Han rat at 1 mg/kg, iv or 2 mg/kg, po; type: ADME, organism-based; conditions: in vivo
[22] = Volume of distribution in Wistar Han rat at 1 mg/kg, iv or 2 mg/kg, po; type: ADME, organism-based; conditions: in vivo
[23] = Dose normalized AUC in Wistar Han rat at 2 mg/kg, po; type: ADME, organism-based; conditions: in vivo
[24] = Clearance in Wistar Han rat at 1 mg/kg, iv or 2 mg/kg, po; type: ADME, organism-based; conditions: in vivo
[25] = Total drug level in rat plasma at 10 mg/kg, po; type: ADME, organism-based; conditions: in vivo
[26] = Total drug level in rat plasma at 30 mg/kg, po; type: ADME, organism-based; conditions: in vivo
[27] = Total drug level in rat plasma at 3 mg/kg, po; type: ADME, organism-based; conditions: in vivo
[28] = Total drug level in rat plasma at 1 mg/kg, po; type: ADME, organism-based; conditions: in vivo
[29] = Total drug level in rat plasma at 0.3 mg/kg, po; type: ADME, organism-based; conditions: in vivo
[30] = Protein binding in rat plasma assessed as unbound fraction at 30 mg/kg, po; type: ADME, organism-based; conditions: in vivo
[31] = Protein binding in rat plasma assessed as unbound fraction at 10 mg/kg, po; type: ADME, organism-based; conditions: in vivo
[32] = Protein binding in rat plasma assessed as unbound fraction at 3 mg/kg, po; type: ADME, organism-based; conditions: in vivo
[33] = Protein binding in rat plasma assessed as unbound fraction at 1 mg/kg, po; type: ADME, organism-based; conditions: in vivo
[34] = organism: Mus musculus; test: Glucose lowering effect in mouse assessed as increase in GLP-1 level; type: functional, organism-based
[35] = Protein binding in rat plasma assessed as unbound fraction at 0.3 mg/kg, po; type: ADME, organism-based; conditions: in vivo
[36] = test system: Rattus norvegicus; test: Hypoglycemic activity in Sprague-Dawley rat assessed as reduction in blood glucose AUC at 3 mg/kg, ip measured after 3 hrs by IPGTT relative to control; type: functional
[37] = Drug level in rat plasma at 100 mg/kg; type: ADME, organism-based; conditions: in vivo
[38] = Drug level in rat plasma at 650 mg/kg; type: ADME, organism-based; conditions: in vivo
[39] = Toxicity in rat at 100 mg/kg administered for 4 days; type: organism-based; conditions: in vivo, 96 h
[40] = Toxicity in rat assessed as change in clinical pathology at 600 mg/kg administered for 4 days; type: organism-based; conditions: in vivo, 96 h
[41] = Drug metabolism in human hepatocytes assessed as (2S,3S,4S,5R)-6-((2S,3R)-3-cyclopropyl-3-(3-((R)-5-(2-fluoro-5-methoxyphenyl)-2,3-dihydro-1H-inden-1-yloxy)phenyl)-2-methylpropanoyloxy)-3,4,5-trihydroxytetrahydro-2H-pyran-2-carboxylic acid formation at 5 uM measured after 2 hrs; type: ADME, cell-based, Hepatocyte
[42] = Drug metabolism in rat hepatocytes assessed as (2S,3R)-3-cyclopropyl-3-(3-((R)-5-(2-fluoro-5-(sulfooxy)phenyl)-2,3-dihydro-1H-inden-1-yloxy)phenyl)-2-methylpropanoic acid formation at 5 uM measured after 2 hrs; type: ADME, cell-based, Hepatocyte
[43] = Drug level in Wistar Han rat assessed as unbound fraction at 1 mg/kg, iv or 2 mg/kg, po; type: ADME, organism-based; conditions: in vivo
[44] = test system: Rattus norvegicus; test: Hypoglycemic activity in Sprague-Dawley rat assessed as reduction in blood glucose AUC at 0.3 mg/kg, po pretreated for 1 hr followed by glucose challenge by OGTT relative to control; type: functional; set-up: scale not given: the % may be the effect or the level left
[45] = test system: Rattus norvegicus; test: Hypoglycemic activity in Sprague-Dawley rat assessed as reduction in blood glucose AUC at 30 mg/kg, po pretreated for 1 hr followed by glucose challenge by OGTT relative to control; type: functional; set-up: scale not given: the % may be the effect or the level left
[46] = test system: Rattus norvegicus; test: Hypoglycemic activity in Sprague-Dawley rat assessed as reduction in blood glucose AUC at 10 mg/kg, po pretreated for 1 hr followed by glucose challenge by OGTT relative to control; type: functional; set-up: scale not given: the % may be the effect or the level left
[47] = test system: Rattus norvegicus; test: Hypoglycemic activity in Sprague-Dawley rat assessed as reduction in blood glucose AUC at 3 mg/kg, po pretreated for 1 hr followed by glucose challenge by OGTT relative to control; type: functional; set-up: scale not given: the % may be the effect or the level left
[48] = test system: Rattus norvegicus; test: Hypoglycemic activity in Sprague-Dawley rat assessed as reduction in blood glucose AUC at 1 mg/kg, po pretreated for 1 hr followed by glucose challenge by OGTT relative to control; type: functional; set-up: scale not given: the % may be the effect or the level left
[49] = molecular target: T1, Free fatty acid receptor 1; test: Positive allosteric modulation of recombinant human GPR40 expressed in HEK293 cells assessed as increase in [3H]-myo-inositol phosphate accumulation measured after 60 mins in absence of human serum by microbeta counting method; type: functional, cell-based
[50] = Ratio of compound effect for protein binding in rat plasma assessed as unbound fraction at 30 mg/kg, po to fEC50 for positive allosteric modulation of recombinant human GPR40 expressed in HEK293 cells in presence of 100% human serum
[51] = Ratio of compound effect for protein binding in rat plasma assessed as unbound fraction at 10 mg/kg, po to fEC50 for positive allosteric modulation of recombinant human GPR40 expressed in HEK293 cells in presence of 100% human serum
[52] = Toxicity in rat assessed as change in body weight at 600 mg/kg administered for 4 days; type: organism-based; conditions: in vivo, 96 h
[53] = Solubility of the compound in FASSIF; type: physicochemical
[54] = Drug level in rat hepatocytes treated with (2S,3R)-3-cyclopropyl-3-(3-((R)-5-(2-fluoro-5-methoxyphenyl)-2,3-dihydro-1H-inden-1-yloxy)phenyl)-2-methylpropanoic acid at 5 uM measured after 2 hrs; type: ADME, cell-based, Hepatocyte

SMILES: C[C@H](C(=O)OC1O[C@H](C(=O)O)[C@@H](O)[C@H](O)[C@H]1O)[C@H](c1cccc(O[C@@H]2CCc3cc(-c4cc(O)ccc4F)ccc32)c1)C1CC1 (stereo not given in full)
- Drug metabolism [1]: Metabolite_Detected
- Stability [2]: Stable

SMILES: COc1ccc(F)c(-c2ccc3c(c2)CC[C@H]3Oc2cccc([C@H](C3CC3)[C@H](C)C(=O)O)c2)c1
- inhibition [3]: 55%
- Activity [4]: 205%
- Activity [5]: 323%
- EC50 [6]: 388 nM
- fEC50 [6]: 0.04 nM
- Fu [7]: 0.01%
- inhibition [8]: 52%
- inhibition [9]: 71%
- inhibition [10]: 87%
- inhibition [11]: 68%
- inhibition [12]: 89%
- inhibition [13]: 69%
- inhibition [14]: 70%
- inhibition [15]: 81%
- inhibition [16]: 80%
- Cp(f) [17]: 0.16 nM
- concentration at 3 h [18]: 1600 nM
- Cmax [19]: 2900 nM
- bioavailability [20]: 81%
- half-life [21]: 1.8 h
- Vd [22]: 0.33 L/kg
- AUC/dose [23]: 21.5 µM·h
- clearance [24]: 2.8 mL/min/kg
- concentration [25]: 7610 nM
- concentration [26]: 17300 nM
- concentration [27]: 4470 nM
- concentration [28]: 689 nM
- concentration [29]: 207 nM
- Cp(f) [30]: 1.73 nM
- Cp(f) [31]: 0.76 nM
- Cp(f) [32]: 0.45 nM
- Cp(f) [33]: 0.069 nM
- Activity [34]: Active
- Cp(f) [35]: 0.02 nM
- inhibition in vivo at 3 mg/kg [36]: 71%
- concentration [37]: 1240 nM
- concentration [38]: 1900 nM
- Activity [39]: Non-Toxic
- Activity [40]: Toxic
- Drug metabolism [41]: Metabolite_Detected
- Drug metabolism [42]: Metabolite_Detected
- Fu [43]: 0.01%
- Activity [44]: 19%
- Activity [45]: 114%
- Activity [46]: 105%
- Activity [47]: 82%
- Activity [48]: 40%
- EC50 [49]: 4.5 nM
- Ratio [50]: 42
- Ratio [51]: 19
- Activity [52]: Toxic
- solubility [53]: 153 µM (≈ 70.5 µg/mL)

SMILES: C[C@H](C(=O)O)[C@H](c1cccc(O[C@@H]2CCc3cc(-c4cc(OS(=O)(=O)O)ccc4F)ccc32)c1)C1CC1
- Drug metabolism [54]: Metabolite_Detected
